Values joined by “and” are separate entries in the source; they are usually repeats but may differ in a detail not shown here. Equal entries are not always repeated. Inconclusive results are not listed.
System: nude mice, LX-1 lung xenograft intrarenal, tumor weight T/C
Assay: NCI In Vivo Anticancer Drug Screen. Data for tumor model Human Lung LX-1 Xenograft (intrarenal inoculation) in NU/NU Swiss (nude) mice
Settings: endpoint: mean tumor weight change, higher = larger tumour
Outline: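 In vivo, transplantable tumor; compound vs vehicle arms; tumor size measured; value = T/C.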

[1] = dose: 150.0 mg/kg/injection, schedule: Q04DX003 (sc), vehicle: Klucel (hydroxypropylcellulose) (HPC)
[2] = dose: 600.0 mg/kg/injection, schedule: Q04DX003 (sc), vehicle: Klucel (hydroxypropylcellulose) (HPC)
[3] = dose: 1200.0 mg/kg/injection, schedule: Q04DX003 (sc), vehicle: Klucel (hydroxypropylcellulose) (HPC)
[4] = dose: 300.0 mg/kg/injection, schedule: Q04DX003 (sc), vehicle: Klucel (hydroxypropylcellulose) (HPC)
[5] = dose: 50.0 mg/kg/injection, schedule: Q01DX010 (sc), vehicle: saline with Tween-80
[6] = dose: 400.0 mg/kg/injection, schedule: Q01DX010 (sc), vehicle: saline with Tween-80
[7] = dose: 100.0 mg/kg/injection, schedule: Q04DX003 (sc), vehicle: saline with Tween-80
[8] = dose: 200.0 mg/kg/injection, schedule: Q04DX003 (sc), vehicle: saline with Tween-80
[9] = dose: 400.0 mg/kg/injection, schedule: Q04DX003 (sc), vehicle: saline with Tween-80

CC(C)(C)c1ccc(CN2CCN(C(c3ccccc3)c3ccc(Cl)cc3)CC2)cc1 (stereo unspecified)
T/C (dose: 37.5 mg/kg/injection, schedule: Q04DX003 (sc), vehicle: Klucel (hydroxypropylcellulose) (HPC)): 79 % of control
T/C (dose: 75.0 mg/kg/injection, schedule: Q04DX003 (sc), vehicle: Klucel (hydroxypropylcellulose) (HPC)): 63 % of control
T/C [1]: 71 % of control
T/C [2]: 63 % of control
T/C [3]: 78 % of control
T/C (dose: 2400.0 mg/kg/injection, schedule: Q04DX003 (sc), vehicle: Klucel (hydroxypropylcellulose) (HPC)): 62 % of control

BrC1c2cccc3cccc(c23)C1Br (stereo unspecified)
T/C (dose: 600.0 mg/kg/injection, schedule: Q04DX003 (sc), vehicle: saline with Tween-80): 155 % of control
T/C (dose: 1200.0 mg/kg/injection, schedule: Q04DX003 (sc), vehicle: saline with Tween-80): 96 % of control

CC1CN1C(=O)NCCCCCCNC(=O)N1CC1C (stereo unspecified)
T/C (dose: 40.0 mg/kg/injection, schedule: Q04DX003 (sc), vehicle: Klucel (hydroxypropylcellulose) (HPC)): 6 % of control and 23 % of control

C=C[Si]12OCCN(CCO1)CCO2
T/C [4]: 250 % of control
T/C [2]: 212 % of control
T/C [3]: 163 % of control

ClCC[N+]12CC[N+](CCCl)(CC1)C2
T/C [5]: 42 % of control and 56 % of control
T/C [6]: 24 % of control
T/C (dose: 600.0 mg/kg/injection, schedule: Q04DX003 (sc), vehicle: water): 54 % of control

O=c1[nH]c(=O)n(C2CC(O)C(CO)O2)cc1I (stereo unspecified)
T/C [5]: 71 % of control

OCCOCCN1CCN(CCCN2c3ccccc3Sc3ccc(C(F)(F)F)cc32)CC1
T/C (dose: 3.0 mg/kg/injection, schedule: Q01DX010 (sc), vehicle: saline): 81 % of control
T/C (dose: 12.0 mg/kg/injection, schedule: Q01DX010 (sc), vehicle: saline): 92 % of control and 111 % of control
T/C (dose: 24.0 mg/kg/injection, schedule: Q01DX010 (sc), vehicle: saline): 52 % of control

N=C(N)SCc1cccc2c(=O)cc(-c3ccccc3)oc12
T/C (dose: 300.0 mg/kg/injection, schedule: Q04DX003 (sc), vehicle: suspension in saline): 51 % of control
T/C (dose: 600.0 mg/kg/injection, schedule: Q04DX003 (sc), vehicle: suspension in saline): 39 % of control
T/C (dose: 1200.0 mg/kg/injection, schedule: Q04DX003 (sc), vehicle: suspension in saline): 63 % of control

C[C@@]12C(=O)OC(=O)[C@]1(C)[C@H]1CC[C@@H]2O1
T/C (dose: 1.25 mg/kg/injection, schedule: Q04DX003 (sc), vehicle: Klucel (hydroxypropylcellulose) (HPC)): 113 % of control
T/C (dose: 2.5 mg/kg/injection, schedule: Q04DX003 (sc), vehicle: Klucel (hydroxypropylcellulose) (HPC)): 86 % of control

CN(C)CCN1C(=O)c2cccc3cc(N)cc(c23)C1=O
T/C (dose: 16.0 mg/kg/injection, schedule: Q04DX003 (sc), vehicle: saline with Tween-80): 157 % of control
T/C (dose: 64.0 mg/kg/injection, schedule: Q04DX003 (sc), vehicle: saline with Tween-80): 113 % of control

C1OCN2CSCC12 (stereo unspecified)
T/C (dose: 50.0 mg/kg/injection, schedule: Q04DX003 (sc), vehicle: saline with Tween-80): 76 % of control
T/C [7]: 103 % of control
T/C [8]: 71 % of control
T/C [9]: 63 % of control

O=C(NO)c1ccc(O)c(O)c1
T/C (dose: 200.0 mg/kg/injection, schedule: Q04DX003 (sc), vehicle: distilled water + Tween-80): 103 % of control
T/C (dose: 400.0 mg/kg/injection, schedule: Q04DX003 (sc), vehicle: distilled water + Tween-80): 74 % of control
T/C (dose: 800.0 mg/kg/injection, schedule: Q04DX003 (sc), vehicle: distilled water + Tween-80): 78 % of control

C[n+]1ccc(Nc2ccc(NC(=O)c3ccc(Nc4cc[n+](C)c5ccc(N)cc45)cc3)cc2)cc1
T/C (dose: 12.5 mg/kg/injection, schedule: Q04DX003 (sc), vehicle: distilled water + Tween-80): 80 % of control
T/C (dose: 25.0 mg/kg/injection, schedule: Q04DX003 (sc), vehicle: distilled water + Tween-80): 86 % of control
T/C (dose: 50.0 mg/kg/injection, schedule: Q04DX003 (sc), vehicle: distilled water + Tween-80): 25 % of control
T/C (dose: 100.0 mg/kg/injection, schedule: Q04DX003 (sc), vehicle: distilled water + Tween-80): 53 % of control

Cc1cc(O)c(N=Nc2ccc(C(=O)O)cc2)cc1C
T/C (dose: 100.0 mg/kg/injection, schedule: Q01DX010 (sc), vehicle: saline with Tween-80): 77 % of control
T/C (dose: 200.0 mg/kg/injection, schedule: Q01DX010 (sc), vehicle: saline with Tween-80): 67 % of control
T/C [6]: 62 % of control
T/C (dose: 800.0 mg/kg/injection, schedule: Q01DX010 (sc), vehicle: saline with Tween-80): 59 % of control

c1cc2n(n1)CCN2
T/C (dose: 50.0 mg/kg/injection, schedule: Q01DX010 (sc), vehicle: saline): 90 % of control and 233 % of control
T/C (dose: 100.0 mg/kg/injection, schedule: Q01DX010 (sc), vehicle: saline): 117 % of control and 124 % of control
T/C (dose: 200.0 mg/kg/injection, schedule: Q01DX010 (sc), vehicle: saline): 35 % of control
T/C (dose: 333.33 mg/kg/injection, schedule: Q04DX003 (ip), vehicle: saline): 67 % of control

N=C(N)Sc1cc(O)ccc1O
T/C (dose: 75.0 mg/kg/injection, schedule: Q04DX003 (sc), vehicle: saline): 91 % of control
T/C (dose: 150.0 mg/kg/injection, schedule: Q04DX003 (sc), vehicle: saline): 164 % of control

O=c1nc(-c2ccco2)sc(=O)[nH]1
T/C [1]: 90 % of control
T/C [4]: 68 % of control
T/C [2]: 53 % of control
T/C [3]: 38 % of control

COc1cc([C@@H]2c3cc4c(cc3[C@@H](OC3OC5COC(C)OC5C(O)C3O)[C@H]3COC(=O)[C@H]23)OCO4)cc(OC)c1O (stereo partly specified)
T/C (dose: 2.0 mg/kg/injection, schedule: Q01DX010 (sc), vehicle: saline): 153 % of control
T/C (dose: 4.0 mg/kg/injection, schedule: Q01DX010 (sc), vehicle: saline): 80 % of control
T/C (dose: 8.0 mg/kg/injection, schedule: Q01DX010 (sc), vehicle: saline): 85 % of control
T/C (dose: 16.0 mg/kg/injection, schedule: Q01DX010 (sc), vehicle: saline): 31 % of control

CS(=O)(=O)c1ncc(Br)cn1
T/C (dose: 75.0 mg/kg/injection, schedule: Q04DX003 (sc), vehicle: saline with Tween-80): 100 % of control
T/C (dose: 150.0 mg/kg/injection, schedule: Q04DX003 (sc), vehicle: saline with Tween-80): 57 % of control
T/C (dose: 300.0 mg/kg/injection, schedule: Q04DX003 (sc), vehicle: saline with Tween-80): 84 % of control

NC(=O)/C=C/c1c[nH]c2nccnc12
T/C (dose: 50.0 mg/kg/injection, schedule: Q04DX003 (sc), vehicle: water): 86 % of control

ClCC[Se](Cl)(Cl)c1ccccc1
T/C (dose: 12.5 mg/kg/injection, schedule: Q04DX003 (sc), vehicle: saline): 92 % of control
T/C (dose: 25.0 mg/kg/injection, schedule: Q04DX003 (sc), vehicle: saline): 70 % of control
T/C (dose: 50.0 mg/kg/injection, schedule: Q04DX003 (sc), vehicle: saline): 46 % of control

CCc1ccc(C2=C(O)C(=O)C(c3ccc(CC)cc3)=C(O)C2=O)cc1
T/C [7]: 83 % of control
T/C [8]: 100 % of control
T/C [9]: 64 % of control
T/C (dose: 800.0 mg/kg/injection, schedule: Q04DX003 (sc), vehicle: saline with Tween-80): 56 % of control

C=CC(=O)N1CN(C(=O)C=C)CN(C(=O)C=C)C1
T/C (dose: 6.25 mg/kg/injection, schedule: Q01DX010 (sc), vehicle: saline with Tween-80): 92 % of control
T/C (dose: 12.5 mg/kg/injection, schedule: Q01DX010 (sc), vehicle: saline with Tween-80): 110 % of control
T/C (dose: 25.0 mg/kg/injection, schedule: Q01DX010 (sc), vehicle: saline with Tween-80): 67 % of control

CC(=O)N(C)C
T/C (dose: 450.0 mg/kg/injection, schedule: Q01DX010 (sc), vehicle: saline): 70 % of control

CCCC(=O)O.CCCC(=O)O.CCCC(=O)O.CCCC(=O)O.[Rh].[Rh]
T/C (dose: 2.0 mg/kg/injection, schedule: Q04DX003 (sc), vehicle: suspension in saline): 48 % of control
T/C (dose: 4.0 mg/kg/injection, schedule: Q04DX003 (sc), vehicle: suspension in saline): 51 % of control
T/C (dose: 8.0 mg/kg/injection, schedule: Q04DX003 (sc), vehicle: suspension in saline): 42 % of control
T/C (dose: 16.0 mg/kg/injection, schedule: Q04DX003 (sc), vehicle: suspension in saline): 55 % of control

CCN(CC)CC[n+]1ccc2c(C)c3[nH]c4ccc(O)cc4c3c(C)c2c1
T/C (dose: 25.0 mg/kg/injection, schedule: Q04DX003 (sc), vehicle: suspension in saline): 172 % of control
T/C (dose: 50.0 mg/kg/injection, schedule: Q04DX003 (sc), vehicle: suspension in saline): 111 % of control

— PubChem BioAssay AID264 (DTP/NCI, 2004)
